Converted amounts (≈) assume the structure as drawn.
Tests used:
Water solubility = assay type: physicochemical; conditions: for solubility: read-out: H2O Sol. % (g per 100 ml H2O)
P388 = assay: IP P388, Days 1-9 (NCI murine test system); assay type: in vivo; conditions: IP P388, Days 1-9, dose 400
Procedure: Anti-tumor or anti-neoplastic activity of the novel derivatives of the present invention is determined by using the murine test system for screening anti-cancer compounds as standardized by the National Cancer Institute, Bethesda, Md., U.S.A., and described in Cancer Chemotherapy Reports, 3 (2) 1-103 (1972) which publication is incorporated herein by reference.
It is noted that although the intraperitoneal mode of administration of the novel derivatives is preferred, other modes of parenteral administration, e.g. subcutaneous, intravenous, etc., are, of course, possible and included within the purview of this invention. Similarly, although water has been used as a vehicle for the administration of the compounds of the present invention, other pharmaceutically acceptable vehicles, e.g. saline, buffers, and other aqueous media may also be used for the administration of these compounds together with adjuvants, agents or additives commonly employed in the preparation of pharmaceutical compositions. Examples of such agents, additives and adjuvants that may be employed are listed in Instruction 14, Screening Data Summary Interpretation and Outline of Clinical Screen. Drug Evaluation Branch, NCI. and are incorporated herein by reference.

L1210 leukemia [1] = assay: S.C. implanted L1210 leukemia in mice (CD2F1); assay type: in vivo
Description: ^a Experimental formulation of mitindomide was used (NaOH + manitol).

L1210 leukemia [2] = assay: IP implanted L1210 leukemia in mice (CD2F1); assay type: in vivo
[3] = 21.6 mg/kg ip days 1-9, Expt. 1
[4] = 21.6 mg/kg ip days 1-9, Expt. 2
[5] = 36.0 mg/kg ip days 1-9, Expt. 1
[6] = 36.0 mg/kg ip days 1-9, Expt. 2
[7] = 60.0 mg/kg ip days 1-9, Expt. 1
[8] = 60.0 mg/kg ip days 1-9, Expt. 2
[9] = 100.0 mg/kg ip days 1-9, Expt. 1
[10] = 100.0 mg/kg ip days 1-9, Expt. 2
[11] = 166.7 mg/kg ip days 1-9, Expt. 2
[12] = 21.6 mg/kg IP days 1-9, Expt. 1
[13] = 21.6 mg/kg IP days 1-9, Expt. 2
[14] = 21.6 mg/kg IP days 1-9, Expt. 3
[15] = 166.7 mg/kg IP days 1-9, Expt. 1
[16] = 166.7 mg/kg IP days 1-9, Expt. 3

For `CC(=O)OC(C(=O)O)N1C(=O)C2C3C=CC(C2C1=O)C1C2C(=O)N(C(OC(C)=O)C(=O)O)C(=O)C2C31` (centres unmarked) [Example 11], the solubility in water (Water solubility; freeze-dried solid after pH adjusted to 6.11 with sodium bicarbonate) was “soluble in water” and the solubility (Water solubility; water) was 50000 µg/mL (≈ 99.1 mM).

`O=C1C2C3C=CC(C2C(=O)N1CO)C1C2C(=O)N(CO)C(=O)C2C31` (centres unmarked) [Example 2, 4,8-Ethenopyrrolo[3',4':3,4]cyclobut[1,2-f]isoindole-1,3,5,7(2H,6H)-tetrone,3a,3b,4,4a,7a,8,8a,8b-octahydro-2-,6-bis(hydroxymethyl)-] showed a solubility (Water solubility; water) of 8000 µg/mL (≈ 24.1 mM).

`O=C1C2C3C=CC(C2C(=O)N1CN1CCOCC1)C1C2C(=O)N(CN4CCOCC4)C(=O)C2C31` (centres unmarked) [Example 5, 4,8-Ethenopyrro[3',4':3,4]cyclobut[1,2-f]isoindole-1,3,5,7(2H,6H)-tetrone,3a,3b,4,4a,7a,8,8a,8b-octahydro-2,6-bis(morpholinomethyl)] gave a solubility (Water solubility; water) of 1000 µg/mL (≈ 2.13 mM).

`O=C1C2C3C=CC(C2C(=O)N1CN1CCSCC1)C1C2C(=O)N(CN4CCSCC4)C(=O)C2C31` (centres unmarked) [Example 6, 4,8-Ethenopyrrolo[3'4':3,4]cyclobut[1,2-f]isoindole-1,3,5,7(2H,6H)-tetrone,3a,3b,4,4a,7a,8,8a,8-octahydro-2,6-bis(thiomorpholinomethyl)] showed a solubility (Water solubility; water) of 1000 µg/mL (≈ 1.99 mM).

With `CC(=O)OCN1C(=O)C2C3C=CC(C2C1=O)C1C2C(=O)N(COC(C)=O)C(=O)C2C31` (centres unmarked) [Example 8, 4,8-Ethenopyrrolo3',4':3,4cyclobut[1,2-f]isoindole-1,3,5,7(2H,6H)-tetrone,3a,3b,4,4a,7a,8a,8b-octahydro-2,6-bis(acetyloxymethyl)] the T/C (P388) was 208, the “fraction printed in brackets behind T/C (not explained)” value (P388) was 1/5 and the solubility (Water solubility; water) was 1000 µg/mL (≈ 2.4 mM).

In the case of `CCN(CC)CN1C(=O)C2C3C=CC(C2C1=O)C1C2C(=O)N(CN(CC)CC)C(=O)C2C31` (centres unmarked) [Example 7, 4,8-Ethenopyrrolo[3',4':3,4]cyclobut[1,2-f]isoindole-1,3,5,7(2H,6H)-tetrone,3a,3b,4,4a,7a,8,8a,8b-octahydro-2,6-bis(N,N-diethylaminomethyl)], the solubility (Water solubility; water) is reported as 1000 µg/mL (≈ 2.26 mM).

In the case of `O=C(O)CCC(=O)OCN1C(=O)C2C3C=CC(C2C1=O)C1C2C(=O)N(COC(=O)CCC(=O)O)C(=O)C2C31` (centres unmarked) [Example 10, 4,8-Ethenopyrrolo[3',4':3,4]cyclobut[1,2-f]isoindole-1,3,5,7(2H,6H)-tetrone,3a,3b,4,4a,7a,8,8a,8b-octahydro-2-,6-bis(succinyloxymethyl)], the solubility in water (Water solubility; freeze-dried powder after pH adjusted to 6.33 with sodium bicarbonate) is reported as “readily soluble in water”, the solubility in water (Water solubility; title compound, 2.4 g mixed with 150 ml of water) is reported as “not soluble” and the solubility (Water solubility; water) is reported as 20000 µg/mL (≈ 37.6 mM).

For `NCC(=O)OCN1C(=O)C2C3C=CC(C2C1=O)C1C2C(=O)N(COC(=O)CN)C(=O)C2C31` (centres unmarked) [Example 9, 4,8-Ethenopyrrolo[3',4':3,4]cyclobut[1,2-f]isoindole-1,3,5,7(2H,6H)-tetrone,3a,3b,4,4a,7a,8,8a,8b-octahydro-2-,6bis(2-aminoacetyloxymethyl)], the solubility (Water solubility; water) was 20000 µg/mL (≈ 44.8 mM).

In the case of `CN1CCN(CN2C(=O)C3C4C=CC(C3C2=O)C2C3C(=O)N(CN5CCN(C)CC5)C(=O)C3C42)CC1` (centres unmarked) [Example 3, 4,8-Ethenopyrrolo[3'4':3,4]cyclobut[1,2-f]isoindole-1,3,5,7(2H,6H)-tetrone,3a,3b,4,4a,7a,8,8a,8b-octahydro-2,6-bis(N-methylpiperazinomethyl)], the ILS (L1210 leukemia [1]; [3]) is reported as 6%, the MST (L1210 leukemia [1]; [3]) is reported as 8.7 days and the “Wt. Change” value (L1210 leukemia [1]; [3]) is reported as -0.3 g. The ILS (L1210 leukemia [1]; [4]) was 10%, the MST (L1210 leukemia [1]; [4]) was 11.8 days and the “Wt. Change” value (L1210 leukemia [1]; [4]) was 0.2 g. The ILS (L1210 leukemia [1]; [5]) was 13%, the MST (L1210 leukemia [1]; [5]) was 9.3 days and the “Wt. Change” value (L1210 leukemia [1]; [5]) was -1.0 g. The ILS (L1210 leukemia [1]; [6]) was 5%, the MST (L1210 leukemia [1]; [6]) was 11.3 days and the “Wt. Change” value (L1210 leukemia [1]; [6]) was -0.4 g. For the same compound, the ILS (L1210 leukemia [1]; [7]) was 70%, the MST (L1210 leukemia [1]; [7]) was 14.0 days and the “Wt. Change” value (L1210 leukemia [1]; [7]) was -4.2 g. The ILS (L1210 leukemia [1]; [8]) was 14%, the MST (L1210 leukemia [1]; [8]) was 12.3 days and the “Wt. Change” value (L1210 leukemia [1]; [8]) was -0.7 g. For the same compound, the ILS (L1210 leukemia [1]; [9]) was 143%, the MST (L1210 leukemia [1]; [9]) was 20.0 days and the “Wt. Change” value (L1210 leukemia [1]; [9]) was -5.3 g. The ILS (L1210 leukemia [1]; [10]) was 72%, the MST (L1210 leukemia [1]; [10]) was 18.5 days and the “Wt. Change” value (L1210 leukemia [1]; [10]) was -3.1 g. The ILS (L1210 leukemia [1]; [11]) was 133%, the MST (L1210 leukemia [1]; [11]) was 25.0 days and the “Wt. Change” value (L1210 leukemia [1]; [11]) was -4.9 g. For the same compound, the ILS (L1210 leukemia [2]; [12]) was 4%, the MST (L1210 leukemia [2]; [12]) was 9.1 days and the “Wt. Change” value (L1210 leukemia [2]; [12]) was 1.9 g. The ILS (L1210 leukemia [2]; [13]) was 3%, the MST (L1210 leukemia [2]; [13]) was 8.3 days and the “Wt. Change” value (L1210 leukemia [2]; [13]) was 0.7 g. For the same compound, the ILS (L1210 leukemia [2]; [14]) was 9%, the MST (L1210 leukemia [2]; [14]) was 9.0 days and the “Wt. Change” value (L1210 leukemia [2]; [14]) was 0.2 g. For the same compound, the ILS (L1210 leukemia [2]; 36 mg/kg IP days 1-9, Expt. 1) was 5%, the MST (L1210 leukemia [2]; 36 mg/kg IP days 1-9, Expt. 1) was 9.2 days and the “Wt. Change” value (L1210 leukemia [2]; 36 mg/kg IP days 1-9, Expt. 1) was 1.7 g. The ILS (L1210 leukemia [2]; 36 mg/kg IP days 1-9, Expt. 2) was 12%, the MST (L1210 leukemia [2]; 36 mg/kg IP days 1-9, Expt. 2) was 9.0 days and the “Wt. Change” value (L1210 leukemia [2]; 36 mg/kg IP days 1-9, Expt. 2) was -0.5 g. The ILS (L1210 leukemia [2]; 36 mg/kg IP days 1-9, Expt. 3) was 9%, the MST (L1210 leukemia [2]; 36 mg/kg IP days 1-9, Expt. 3) was 9.0 days and the “Wt. Change” value (L1210 leukemia [2]; 36 mg/kg IP days 1-9, Expt. 3) was 0.2 g. For the same compound, the ILS (L1210 leukemia [2]; 60 mg/kg IP days 1-9, Expt. 1) was 37%, the MST (L1210 leukemia [2]; 60 mg/kg IP days 1-9, Expt. 1) was 12.0 days and the “Wt. Change” value (L1210 leukemia [2]; 60 mg/kg IP days 1-9, Expt. 1) was -0.4 g. The ILS (L1210 leukemia [2]; 60 mg/kg IP days 1-9, Expt. 2) was 75%, the MST (L1210 leukemia [2]; 60 mg/kg IP days 1-9, Expt. 2) was 14.0 days and the “Wt. Change” value (L1210 leukemia [2]; 60 mg/kg IP days 1-9, Expt. 2) was -4.4 g. The ILS (L1210 leukemia [2]; 60 mg/kg IP days 1-9, Expt. 3) was 46%, the MST (L1210 leukemia [2]; 60 mg/kg IP days 1-9, Expt. 3) was 12.0 days and the “Wt. Change” value (L1210 leukemia [2]; 60 mg/kg IP days 1-9, Expt. 3) was -1.3 g. For the same compound, the ILS (L1210 leukemia [2]; 100 mg/kg IP days 1-9, Expt. 1) was 37%, the MST (L1210 leukemia [2]; 100 mg/kg IP days 1-9, Expt. 1) was 12.0 days and the “Wt. Change” value (L1210 leukemia [2]; 100 mg/kg IP days 1-9, Expt. 1) was -2.9 g. The ILS (L1210 leukemia [2]; 100 mg/kg IP days 1-9, Expt. 2) was 141%, the MST (L1210 leukemia [2]; 100 mg/kg IP days 1-9, Expt. 2) was 19.3 days and the “Wt. Change” value (L1210 leukemia [2]; 100 mg/kg IP days 1-9, Expt. 2) was -4.8 g. For the same compound, the ILS (L1210 leukemia [2]; 100 mg/kg IP days 1-9, Expt. 3) was 95%, the MST (L1210 leukemia [2]; 100 mg/kg IP days 1-9, Expt. 3) was 16.0 days and the “Wt. Change” value (L1210 leukemia [2]; 100 mg/kg IP days 1-9, Expt. 3) was -3.1 g. The MST (L1210 leukemia [2]; [15]) was 6.3 days, the “Wt. Change” value (L1210 leukemia [2]; [15]) was -5.2 g and the ILS (L1210 leukemia [2]; [16]) was 156%. For the same compound, the MST (L1210 leukemia [2]; [16]) was 21.0 days, the “Wt. Change” value (L1210 leukemia [2]; [16]) was -5.2 g and the “solubility of dosed preparation” value (L1210 leukemia [2]; Table 4 Expt. 1, vehicle water, 60 mg/kg and higher) was “insoluble”. For the same compound, the “H2O Sol. % (g per 100 ml H2O)” value (Water solubility; water) was 1.5 % (g per 100 ml H2O).

Reference: patent US4670461A, “Formaldehyde derivatives of mitindomide” (priority 1984, dated 1987)
